Reference: patent US20160108381A1, “DNA POLYMERASES AND MUTANTS THEREOF” (LIFE TECHNOLOGIES CORPORATION, priority 2001, published 2016)

Legend:
[1] = molecular target: T1, Clostridium stercorarium DNA polymerase, N-terminal His6 tag (Cst-His), SEQ ID NO:14 (Thermoclostridium stercorarium, UniProt L7VMI6); assay: Steady-state kinetics, DNA- and RNA-dependent polymerase activity
T1 sequence (L7VMI6 with tags, fused parts or gaps): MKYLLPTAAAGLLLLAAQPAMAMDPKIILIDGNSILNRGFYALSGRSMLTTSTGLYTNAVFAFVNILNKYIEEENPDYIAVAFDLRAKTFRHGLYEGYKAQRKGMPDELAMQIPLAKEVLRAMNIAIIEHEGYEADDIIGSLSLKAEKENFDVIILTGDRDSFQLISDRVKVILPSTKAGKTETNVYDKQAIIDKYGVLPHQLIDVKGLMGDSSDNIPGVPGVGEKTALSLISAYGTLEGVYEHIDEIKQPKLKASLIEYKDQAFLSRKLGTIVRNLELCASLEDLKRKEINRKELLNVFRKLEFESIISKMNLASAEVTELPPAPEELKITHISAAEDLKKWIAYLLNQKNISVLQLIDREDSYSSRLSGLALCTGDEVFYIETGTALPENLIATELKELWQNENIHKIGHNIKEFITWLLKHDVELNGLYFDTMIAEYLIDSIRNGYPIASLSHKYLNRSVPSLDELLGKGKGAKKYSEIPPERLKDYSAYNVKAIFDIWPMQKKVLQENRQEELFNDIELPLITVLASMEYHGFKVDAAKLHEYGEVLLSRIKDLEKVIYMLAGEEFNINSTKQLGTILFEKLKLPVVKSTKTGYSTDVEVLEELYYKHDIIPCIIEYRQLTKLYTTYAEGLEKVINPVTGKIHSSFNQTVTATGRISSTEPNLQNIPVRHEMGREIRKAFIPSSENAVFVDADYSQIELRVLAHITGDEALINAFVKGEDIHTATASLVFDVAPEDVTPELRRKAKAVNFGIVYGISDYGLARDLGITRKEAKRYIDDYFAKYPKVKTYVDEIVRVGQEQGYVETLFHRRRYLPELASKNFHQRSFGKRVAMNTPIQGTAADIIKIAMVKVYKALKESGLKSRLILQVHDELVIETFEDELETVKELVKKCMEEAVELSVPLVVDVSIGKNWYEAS
Source text: (§1) Subcloning of genes for Cst and Cth DNA polymerases. In order to improve expression and simplify purification of Cst and Cth DNA polymerase, the genes were subcloned downstream of a T7 promoter and an amino-terminal His6 tag sequence was introduced using Gateway cloning technology (Invitrogen Corporation, Carlsbad, Calif.). The sequence of the DNA oligonucleotide used at the 5′ end of the Cst gene was: 5′-[…] ATAGAC 3′ (SEQ ID NO:37). The sequence of the DNA oligonucleotide used at the 5′ end of the Cth gene was: 5′-[…] […]-3′ (SEQ ID NO:38). The sequence of the DNA oligonucleotide used at the 3′ end of each gene was the same: 5′-[…] […] 3′ (SEQ ID NO:39). Purified pET26B plasmid DNA (Novagen Inc., Madison, Wis.) bearing the gene for Cst or Cth DNA polymerase was amplified by PCR utilizing the primers listed above and Platinum Taq HiFi DNA polymerase (Invitrogen Corporation, Carlsbad, Calif.). PCR products purified by agarose gel electrophoresis were cloned into Gateway vector pDON21 and transferred by recombination into vector pDEST17. […] Each final recombinant plasmid was transformed into the E. coli expression host BL21-AI (Invitrogen Corporation, Carlsbad, Calif.).
(§2) Purification of Cst-His and Cth-His DNA polymerases. E. coli cells (BL21AI) bearing the plasmid pDEST17 with the gene for Cst-His or Cth-His DNA polymerase were grown in 2.8-1 Fembach flasks in LB broth containing 50 μg/ml ampicillin at 37° C. After the culture reached an A590 of 1.0, expression of DNA polymerase was induced by the addition of 0.2% arabinose for 3 hr. Cells were harvested by centrifugation and stored at −70° C.
(§3) Steady-state kinetic measurements.
(§4) The assays were conducted in the presence of 1.5 mM MgCl2 at 55° C. for all enzymes except the Caldibacillus cellulovorans CompA.2 enzyme where 2 mM MgCl2 and 45° C. were used.

[2] = molecular target: T2, Clostridium thermosulfurogenes DNA polymerase, N-terminal His6 tag (Cth-His), SEQ ID NO:15 (Thermoanaerobacterium thermosulfurigenes, UniProt Q6X9R5); assay: as above
T2 sequence (Q6X9R5 with tags, fused parts or gaps): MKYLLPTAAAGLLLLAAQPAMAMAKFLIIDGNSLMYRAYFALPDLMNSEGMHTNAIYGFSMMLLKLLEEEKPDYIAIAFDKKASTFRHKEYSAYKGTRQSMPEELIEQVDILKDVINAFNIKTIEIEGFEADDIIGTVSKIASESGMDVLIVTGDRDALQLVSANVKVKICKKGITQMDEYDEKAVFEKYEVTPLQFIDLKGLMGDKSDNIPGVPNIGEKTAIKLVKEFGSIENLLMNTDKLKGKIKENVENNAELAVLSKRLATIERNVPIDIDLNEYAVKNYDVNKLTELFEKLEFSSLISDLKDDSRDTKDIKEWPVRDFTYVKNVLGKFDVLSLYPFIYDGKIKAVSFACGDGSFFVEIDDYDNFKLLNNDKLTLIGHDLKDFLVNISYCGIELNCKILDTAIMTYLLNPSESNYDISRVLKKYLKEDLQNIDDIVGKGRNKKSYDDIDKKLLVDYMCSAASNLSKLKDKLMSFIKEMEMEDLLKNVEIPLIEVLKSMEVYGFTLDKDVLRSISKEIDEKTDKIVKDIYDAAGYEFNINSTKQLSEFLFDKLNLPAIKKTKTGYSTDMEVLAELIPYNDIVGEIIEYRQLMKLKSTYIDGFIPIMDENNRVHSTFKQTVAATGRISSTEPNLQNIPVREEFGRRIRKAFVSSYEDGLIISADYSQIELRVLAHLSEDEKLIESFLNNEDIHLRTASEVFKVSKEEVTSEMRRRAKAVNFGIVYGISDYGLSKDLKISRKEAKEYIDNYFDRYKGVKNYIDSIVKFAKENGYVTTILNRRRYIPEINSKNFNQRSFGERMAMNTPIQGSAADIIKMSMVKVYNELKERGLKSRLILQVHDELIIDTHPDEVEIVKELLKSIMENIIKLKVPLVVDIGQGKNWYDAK
Source text: as §1, §2, §3, §4

[3] = Table 34, RNA template, 2 mM MgCl2, 45 °C per footnote
[4] = read-out: Km RNA (dTTP), Table 34, RNA template, 2 mM MgCl2, 45 °C per footnote

Compound: Cc1cn([C@H]2C[C@H](O)[C@@H](COP(=O)(O)OP(=O)(O)OP(=O)(O)O)O2)c(=O)[nH]c1=O [dTTP]
- Kcat RNA (dTTP) [1, 3]: 19.2 s⁻¹
- kCAT Ratio (RNA/DNA) ([1]; Table 40, dTTP, 55 °C): 2.2
- Km [1, 4]: 76 µM
- Kcat RNA (dTTP) [2, 3]: 0.94 s⁻¹
- kCAT Ratio (RNA/DNA) ([2]; Table 40, dTTP, 55 °C): 0.57
- Km [2, 4]: 68 µM
